# According to patent publication US5906930A, “Para-nitrobenzyl esterases with enhanced activity in aqueous and nonaqueous media” (California Institute of Technology, priority 1998, dated 1999):
# Residue numbers refer to the chain shown, from its start.
# Legend:
# Assay in all cases: Kinetic assays of purified pNB esterase (ester hydrolysis)
# Type in all cases: biochemical
# Settings in all cases: 0.1M PIPES pH 7.0, 30° C.
# [1] = biological target: T1, Bacillus subtilis para-nitrobenzyl esterase variant 4-38B9 (3-10C4 substitutions + I60V), SEQ. ID. NO. 10 (Bacillus subtilis, UniProt P37967, H322R/I60V/L144M/M358V/Y370F)
# T1 sequence (P37967 1-489 K23L/S59P/I60V/K95Q/L144M/N150D/S230A/G242S/K246R/S251A/A291S/H322R/V343A/M358V/Y370F/K390E/L463V): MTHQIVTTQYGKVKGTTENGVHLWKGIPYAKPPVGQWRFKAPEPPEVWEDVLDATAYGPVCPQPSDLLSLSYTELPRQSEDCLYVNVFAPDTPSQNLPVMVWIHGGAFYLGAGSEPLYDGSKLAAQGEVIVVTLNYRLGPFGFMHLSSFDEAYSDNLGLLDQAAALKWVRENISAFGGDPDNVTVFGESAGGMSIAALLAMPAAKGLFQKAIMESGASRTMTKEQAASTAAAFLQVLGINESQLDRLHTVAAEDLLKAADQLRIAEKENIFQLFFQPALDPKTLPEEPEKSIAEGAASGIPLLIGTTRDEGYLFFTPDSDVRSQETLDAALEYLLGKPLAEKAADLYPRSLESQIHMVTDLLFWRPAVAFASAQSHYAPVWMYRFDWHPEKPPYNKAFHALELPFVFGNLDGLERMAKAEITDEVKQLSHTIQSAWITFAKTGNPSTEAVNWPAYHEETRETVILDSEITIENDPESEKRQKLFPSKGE
# Method: (§1) Bacteria expressing seven pNB esterases, 0-WT (SEQ. ID. NO. 2), 1-1H9, 2-19E10, 3-10C4, 4-38B9, 4-43E7, and 4-54B9, were grown in one liter cultures and the enzymes were purified. These purified enzymes were assayed for their ability to hydrolyze the different ester substrates in the presence of various concentrations of DMF. FIGS. 8a, b and c show the specific reaction rates on pNPA as a function of pNPA substrate concentration for this series of evolved variants from the four generations of mutagenesis and screening. […] The wild type enzyme outperforms 1-1H9 in purely aqueous buffer (FIG. 8a). The actual screening, however, was performed in the presence of DMF, and in 15 and 30% DMF, 1-1H9 has higher specific activity towards pNPA than wild type (FIGS. 8b and 8c). Similar trends are seen for the remaining variants assayed on this substrate. […] In 30% DMF, wild type drops still further relative to the pNB esterase variants. Variants 4-38B9 and 4-43E7, presumably by, virtue of having been screened in DMF for four rounds of mutagenesis, are the best performers in 30% DMF.
# (§2) DMF dramatically increases KM while also decreasing kcat. For the LCN substrates, the mutations accumulated during directed evolution mitigate the increased KM. The effects on kcat, however, are more prominent: kcat increases more than 9-fold from wild type to 4-54B9 in 15% DMF, while KM decreases by less than a factor of two on LCN-pNB. […] At substrate concentrations […], increased specific activity will result mainly from improvements in kcat. These improvements are obviously the most useful for enzymes intended to be used for transformations in high substrate concentrations.
# (§3) Kinetic assays were performed on three substrates: pNPA, LCN-pNP, and p-nitrobenzyl loracarbef nucleus (LCN-pNB). For pNPA and LCN-pNP substrates, final concentrations varying from 0.0625 mM to 16 mM and 0, 15, and 30% DMF in 0.1M PIPES (Sigma), pH 7.0 were combined with equal volumes of enzyme samples. These samples were mixed simultaneously in a 96 well plate and monitored with the 96 well plate reader. The absorbance values were recorded, linearly regressed, and then used for calculating kinetic parameters. For the LCN-pNB substrate, final concentrations varying from 0.0156 mM to 8.0 mM and 0, 15 and 30% DMF in PIPES, pH 7.0 were combined with enzyme samples in a quartz cuvette and were measured in a spectrophotometer at 289 nm. All assays were measured in triplicate.
# [2] = biological target: T2, Bacillus subtilis para-nitrobenzyl esterase variant 3-10C4 (2-19E10 substitutions + L144M), SEQ. ID. NO. 8 (Bacillus subtilis, UniProt P37967, H322R/L144M/M358V/Y370F)
# T2 sequence (P37967 1-489 K23L/S59P/K95Q/L144M/N150D/S230A/G242S/K246R/S251A/A291S/H322R/V343A/M358V/Y370F/K390E/L463V): T1 sequence (P37967 1-489 K23L/S59P/I60V/K95Q/L144M/N150D/S230A/G242S/K246R/S251A/A291S/H322R/V343A/M358V/Y370F/K390E/L463V) with V60I
# Method: as §1, §2, §3
# [3] = biological target: T3, Bacillus subtilis para-nitrobenzyl esterase variant 4-43E7 (3-10C4 substitutions + L334V and one further substitution), SEQ. ID. NO. 12 (Bacillus subtilis, UniProt P37967, H322R/L144M/L334V/M358V/S94G/Y370F); set-up: unit not given beside the values
# T3 sequence (P37967 1-489 K23L/S59P/S94G/K95Q/L144M/N150D/S230A/G242S/K246R/S251A/A291S/H322R/L334V/V343A/M358V/Y370F/K390E/L463V): T1 sequence (P37967 1-489 K23L/S59P/I60V/K95Q/L144M/N150D/S230A/G242S/K246R/S251A/A291S/H322R/V343A/M358V/Y370F/K390E/L463V) with V60I, S94G, L334V
# Method: as §1, §2, §3
# [4] = biological target: T4, Bacillus subtilis para-nitrobenzyl esterase variant 2-19E10 (1-1H9 substitutions + M358V), SEQ. ID. NO. 6 (Bacillus subtilis, UniProt P37967, H322R/M358V/Y370F); set-up: unit not given beside the values
# T4 sequence (P37967 1-489 K23L/S59P/K95Q/N150D/S230A/G242S/K246R/S251A/A291S/H322R/V343A/M358V/Y370F/K390E/L463V): T1 sequence (P37967 1-489 K23L/S59P/I60V/K95Q/L144M/N150D/S230A/G242S/K246R/S251A/A291S/H322R/V343A/M358V/Y370F/K390E/L463V) with V60I, M144L
# Method: as §1, §2, §3
# [5] = biological target: T5, Bacillus subtilis para-nitrobenzyl esterase (pNB esterase), wild type 0-WT, SEQ. ID. NO. 2 (Bacillus subtilis, UniProt P37967); set-up: unit not given beside the values
# T5 sequence (P37967 1-489 K23L/S59P/K95Q/N150D/S230A/G242S/K246R/S251A/A291S/V343A/K390E/L463V): T1 sequence (P37967 1-489 K23L/S59P/I60V/K95Q/L144M/N150D/S230A/G242S/K246R/S251A/A291S/H322R/V343A/M358V/Y370F/K390E/L463V) with V60I, M144L, R322H, V358M, F370Y
# Method: as §1, §2, §3
# [6] = biological target: T6, Bacillus subtilis para-nitrobenzyl esterase variant 4-54B9 (3-10C4 substitutions + L334S and one further substitution), SEQ. ID. NO. 14 (Bacillus subtilis, UniProt P37967, H322R/K267R/L144M/L334S/M358V/Y370F); set-up: unit not given beside the values
# T6 sequence (P37967 1-489 K23L/S59P/K95Q/L144M/N150D/S230A/G242S/K246R/S251A/K267R/A291S/H322R/L334S/V343A/M358V/Y370F/K390E/L463V): T1 sequence (P37967 1-489 K23L/S59P/I60V/K95Q/L144M/N150D/S230A/G242S/K246R/S251A/A291S/H322R/V343A/M358V/Y370F/K390E/L463V) with V60I, K267R, L334S
# Method: as §1, §2, §3
# [7] = biological target: T7, Bacillus subtilis para-nitrobenzyl esterase variant 1-1H9 (incl. Y370F), SEQ. ID. NO. 4 (Bacillus subtilis, UniProt P37967, H322R/Y370F)
# T7 sequence (P37967 1-489 K23L/S59P/K95Q/N150D/S230A/G242S/K246R/S251A/A291S/H322R/V343A/Y370F/K390E/L463V): T1 sequence (P37967 1-489 K23L/S59P/I60V/K95Q/L144M/N150D/S230A/G242S/K246R/S251A/A291S/H322R/V343A/M358V/Y370F/K390E/L463V) with V60I, M144L, V358M
# Method: Bacteria expressing seven pNB esterases, 0-WT (SEQ. ID. NO. 2), 1-1H9, 2-19E10, 3-10C4, 4-38B9, 4-43E7, and 4-54B9, were grown in one liter cultures and the enzymes were purified. These purified enzymes were assayed for their ability to hydrolyze the different ester substrates in the presence of various concentrations of DMF.
# The effects on kcat, however, are more prominent: kcat increases more than 9-fold from wild type to 4-54B9 in 15% DMF, while KM decreases by less than a factor of two on LCN-pNB. […] These improvements are obviously the most useful for enzymes intended to be used for transformations in high substrate concentrations.
# as §3
# [8] = substrate p-nitrophenyl loracarbef nucleus, 0% DMF
# [9] = substrate p-nitrophenyl loracarbef nucleus, 15% DMF
# [10] = substrate p-nitrophenyl loracarbef nucleus, 30% DMF
# [11] = substrate p-nitrobenzyl loracarbef nucleus, 0% DMF
# [12] = substrate p-nitrobenzyl loracarbef nucleus, 15% DMF
smiles,measurement,setting,value
NC1C(=O)N2C(C(=O)Oc3ccc([N+](=O)[O-])cc3)=C(Cl)CCC12 (centres unmarked) [p-nitrophenyl loracarbef nucleus],kcat,[1]; [8],0.39
same,kcat,[1]; [9],0.25
same,kcat,[1]; [10],0.067
same,kcat,[2]; [8],0.35
same,kcat,[2]; [9],0.21
same,kcat,[2]; [10],0.044
same,kcat,[3]; [8],0.67
same,kcat,[3]; [9],0.40
same,kcat,[3]; [10],0.094
same,kcat,[4]; [8],0.25
same,kcat,[4]; [9],0.12
same,kcat,[4]; [10],0.023
same,kcat,[5]; [8],0.14
same,kcat,[5]; [9],0.10
same,kcat,[5]; [10],0.024
same,kcat,[6]; [8],1.44
same,kcat,[6]; [9],0.93
same,kcat,[6]; [10],0.141
same,kcat,[7]; [8],0.08
same,kcat,[7]; [9],0.07
same,kcat,[7]; [10],0.021
NC1C(=O)N2C(C(=O)OCc3ccc([N+](=O)[O-])cc3)=C(Cl)CCC12 (centres unmarked) [p-nitrobenzyl loracarbef nucleus],kcat,[1]; [11],8.51
same,kcat,[1]; [12],1.89
same,kcat,[2]; [11],6.53
same,kcat,[2]; [12],1.62
same,kcat,[3]; [11],9.13
same,kcat,[3]; [12],3.02
same,kcat,[4]; [11],4.59
same,kcat,[4]; [12],1.81
same,kcat,[5]; [11],1.64
same,kcat,[5]; [12],0.54
same,kcat,[6]; [11],18.96
same,kcat,[6]; [12],6.84
same,kcat,[7]; [11],1.94
same,kcat,[7]; [12],0.69
